Test system: vaginal microbiota (PB-primer target groups)
Experiment: PB-qPCR microbial profiles of vaginal swabs of recurrent BV patients (Example 2)
Format: in vivo, human
Conditions: P4
Procedure: Sample processing, DNA extraction, and qPCR. Microbial gDNA was purified from swabs in 1-2 ml saline or lysis solution by a high SDS/alkaline lysis—phenol extraction protocol as described previously in Lambert and resuspended in 200 μL TE (10 mM Tris, pH 8, 1 mM EDTA). The lysed bacterial gDNA is stable for over one month at room temperature in lysis solution buffer (data not shown) and this buffer prevents changes in titer due to possible stability issues with different strains of bacteria in saline. An aliquot of purified DNA was assayed by qPCR with 18 universal and phylogenetic branch-inclusive (PB) primers and PCR conditions as described previously in Lambert. Additional primers, targeting the Enterococcus genus and its cytolysin gene CyILL, are provided in SEQ ID NOs: 92 and 95 (Enterococcus), and 93 and 96 (cytolysin gene). Each PB-primer targets a branch of the phylogenetic tree, from whole phyla to family or genus, and is far more inclusive than species-specific primers. Relative LB composition of the vaginal microbiome was determined by dividing the Lactobacillaceae titer by the sum of all PB-primers and by using the disclosed LB-blocker approach. Briefly, the LB-blocker approach uses the difference between the quantitative cycles (Cq) of two parallel qPCR reactions with universal primers targeting the 16S rRNA gene, when one of the reactions is in the presence of LB spp.-specific blocking oligomers (LB-blockers) that have been chemically modified to prevent extension and that partially overlap the universal primer binding site, effectively rendering the LB DNA “invisible” to the universal PCR, even when LB gDNA is present at great excess compared to non-LB gDNA, as is common in healthy and PT samples. PB-primers amplicons were selectively sequenced to confirm they were correctly targeted and to identify the dominant species. These were “cleaned” enzymatically as described in Lambert, and Sanger sequenced at Functional Biosciences (Madison, WI). Sequences were uploaded to Ribosomal Database Project II using its Pipeline function; species were identified based on phylogenetic trees constructed in Molecular Evolutionary Genetics Analysis (MEGA5) software.
Calculations. Cq values from qPCR reactions were converted to molecules per reaction by comparing sample Cq values to a standard curve from the same run of Cq values derived from dilutions of an amplicon of known target of known concentration. Molecules per reaction were converted to cells per swab, assuming an average of 5 ribosomal genes per cell and proportioned to the ratio of the volume of the sample used in the DNA prep and the amount of sample used in the qPCR reaction. Delta Cq (ΔCq) values of LB-blocked reaction pairs were calculated as Cq (blocked sample)−Cq (unblocked sample). Differences between patient groups were compared using the t test in (GraphPad software).

With `CCS(=O)(=O)CCn1c([N+](=O)[O-])cnc1C` [tinidazole] the “Relative level of the 7 non-LB targets detected after treatment” value was “under 0.1%” and the “Response to treatment (microbial profile)” value was “responded well”.

Source: US12509734B2, “Systems and methods to assess microbiomes and treatments thereof” (priority 2013, dated 2025)
